According to ChEMBL document CHEMBL5230127, “Research progress of mTOR inhibitors” (Eur J Med Chem, 2020):

How the values were obtained:
[1] = Inhibition of DNAPK in human HCT-116 cells preincubated for 1 hr followed by UV radiation and measured after 1 hr by Bradford assay based immunoblotting analysis; assay type: cell-based
[2] = target: T1, Serine/threonine-protein kinase mTOR (Homo sapiens, UniProt P42345)
Splenocyte = assay: Immunosuppressive activity in BDF1 mouse Splenocyte assessed as inhibition of concanavalin A induced T-cell proliferation incubated for 72 hrs by [3H]-thymidine incorporation based liquid scintillation counter analysis; assay type: functional
Cortical neurone [3] = assay: Neuroprotective activity in rat Primary cortical neuron assessed as increase in neurite outgrowth incubated for 72 hrs by cellomics array-scan assay; assay type: functional, cell-based
Cortical neurone [4] = assay: Neuroprotective activity in rat Primary cortical neuron assessed as increase in neuronal survival by measuring neurofilament incubated for 72 hrs by ELISA; assay type: functional, cell-based
mTORC2 = mTORC2 (Homo sapiens, UniProt P42345); assay: Inhibition of mTORC2 in human LN-229 cells assessed as decrease in phosphorylation of AKT at Ser473 level incubated for 24 hrs by immunoblot assay; assay type: cell-based
[5] = target: T1, Serine/threonine-protein kinase mTOR; assay: Binding affinity to mTOR (unknown origin) assessed as dissociation constant by measuring pKd
[6] = target: T1, Serine/threonine-protein kinase mTOR; assay: Inhibition of mTOR (unknown origin) assessed as inhibition constant using GFP-4EBP1 as substrate by Lanthascreen based time resolved fluorescence based assay
[7] = target: Phosphatidylinositol 4,5-bisphosphate 3-kinase catalytic subunit alpha isoform (Homo sapiens, UniProt P42336); assay: Inhibition of PIK3alpha (unknown origin) expressed in baculovirus assessed as inhibition constant using PIP2 as substrate in presence of [gamma-32P]ATP incubated for 30 mins by scintillation proximity assay
Sequence of Phosphatidylinositol 4,5-bisphosphate 3-kinase catalytic subunit alpha isoform (P42336 whole entry, canonical isoform): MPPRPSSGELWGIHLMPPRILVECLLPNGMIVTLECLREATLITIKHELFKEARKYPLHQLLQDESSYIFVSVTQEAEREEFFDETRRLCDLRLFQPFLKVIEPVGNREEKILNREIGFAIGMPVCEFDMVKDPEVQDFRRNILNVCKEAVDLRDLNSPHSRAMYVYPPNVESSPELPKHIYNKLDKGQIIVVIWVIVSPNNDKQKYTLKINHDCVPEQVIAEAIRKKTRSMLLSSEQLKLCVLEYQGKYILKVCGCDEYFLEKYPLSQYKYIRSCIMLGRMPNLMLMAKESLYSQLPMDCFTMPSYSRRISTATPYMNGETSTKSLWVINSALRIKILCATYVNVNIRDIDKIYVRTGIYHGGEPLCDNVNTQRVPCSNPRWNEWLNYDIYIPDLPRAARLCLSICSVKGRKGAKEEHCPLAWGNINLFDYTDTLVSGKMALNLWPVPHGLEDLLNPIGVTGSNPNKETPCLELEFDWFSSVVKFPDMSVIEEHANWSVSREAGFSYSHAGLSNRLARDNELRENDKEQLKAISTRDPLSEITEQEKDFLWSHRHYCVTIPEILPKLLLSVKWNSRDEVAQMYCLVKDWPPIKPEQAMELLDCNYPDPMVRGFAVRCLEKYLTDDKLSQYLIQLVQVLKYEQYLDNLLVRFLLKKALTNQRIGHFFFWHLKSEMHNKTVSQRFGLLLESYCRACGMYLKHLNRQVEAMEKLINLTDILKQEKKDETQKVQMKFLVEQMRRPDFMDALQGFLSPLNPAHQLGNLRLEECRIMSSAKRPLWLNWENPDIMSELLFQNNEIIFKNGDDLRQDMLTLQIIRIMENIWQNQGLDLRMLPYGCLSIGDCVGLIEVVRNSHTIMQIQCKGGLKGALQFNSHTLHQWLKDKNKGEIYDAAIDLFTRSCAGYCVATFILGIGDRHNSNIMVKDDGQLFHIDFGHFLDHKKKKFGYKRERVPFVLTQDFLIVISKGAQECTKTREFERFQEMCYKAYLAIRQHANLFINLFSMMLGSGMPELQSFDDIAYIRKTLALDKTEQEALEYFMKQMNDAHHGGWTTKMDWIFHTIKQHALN

[8] = target: Serine/threonine-protein kinase mTOR (Rattus norvegicus, UniProt P42346); assay: Inhibition of mTOR in rat brain by […] immunoblot assay; assay type: tissue-based

**Q.** With `Nc1ccc(-c2ccc3ncc4ccc(=O)n(-c5cccc(C(F)(F)F)c5)c4c3c2)cn1` as the compound, how does the IC50 [1] read?
**A.** < 10 nM

**Q.** With `COc1cccc2cc(-c3nc(C4CCC(C(=O)O)CC4)n4ncnc(N)c34)[nH]c12` (stereo unspecified) as the compound, how does the IC50 [2] read?
**A.** 4 nM

**Q.** With `CO[C@@H]1C[C@H](C[C@@H](C)[C@@H]2CC(=O)[C@H](C)/C=C(\C)[C@@H](O)[C@@H](OC)C(=O)[C@H](C)C[C@H](C)/C=C/C=C/C=C(\C)[C@@H](OCc3ccccc3)C[C@@H]3CC[C@@H](C)[C@@](O)(O3)C(=O)C(=O)N3CCCC[C@H]3C(=O)O2)CC[C@H]1O` as the compound, how does the IC50 (Splenocyte) read?
**A.** 6 nM

**Q.** For `CO[C@@H]1C[C@H](C[C@@H](C)[C@@H]2CC(=O)[C@H](C)/C=C(\C)[C@@H](O)[C@@H](OC)C(=O)[C@H](C)C[C@H](C)/C=C/C=C/C=C(\C)CC[C@@H]3CC[C@@H](C)[C@@](O)(O3)C(=O)C(=O)N3CCCC[C@H]3C(=O)O2)CC[C@H]1O`, which IC50 (Splenocyte) is on record?
**A.** 2 nM

**Q.** Which EC50 (Cortical neurone [3]) does the source give for `CO[C@H]1C[C@@H]2CC[C@@H](C)[C@@](O)(O2)C(=O)C(=O)N2CCCC[C@H]2C(=O)O[C@H]([C@H](C)C[C@@H]2CC[C@@H](O)[C@H](OC)C2)CC(=O)[C@H](C)/C=C(\C)[C@@H](O)[C@@H](OC)C(=O)[C@H](C)C[C@H](C)C2C=CC(/C=C/1C)ON2c1ccccc1` here?
**A.** 420 nM

**Q.** What about the EC50 (Cortical neurone [4]) of the same compound?
**A.** 700 nM

**Q.** With `CC1CN(C(=O)Nc2ccc(Cl)c(Cl)c2)/C(=N/c2cccc(F)c2)S1` (stereo unspecified) as the compound, how does the IC50 (mTORC2) read?
**A.** 310 nM

**Q.** Which Kd [5] does the source give for `CNc1ncnn2c(C3CCC(C(=O)O)CC3)nc(-c3cc4cccc(OC5CCOC5)c4[nH]3)c12` (stereo unspecified) here?
**A.** 204 nM

**Q.** Which results are given for `O=C(O[C@@H]1Cc2c(O)cc(O)cc2O[C@@H]1c1cc(O)c(O)c(O)c1)c1cc(O)c(O)c(O)c1` [EPIGALOCATECHIN GALLATE]?
**A.** Ki [6]: 320 nM; Ki [7]: 380 nM

**Q.** With `COC[C@H]1OC(=O)c2coc3c2[C@@]1(C)C1=C(C3=O)[C@@H]2CCC(=O)[C@@]2(C)C[C@H]1OC(C)=O` [WORTMANNIN] as the compound, how does the IC50 [8] read?
**A.** 300 nM
